# Test results: EP1949908A1, “Combined use of derivatives of GLP-1 analogs and PPAR ligands” (NOVO NORDISK A/S, priority 2001, dated 2002)
# Tested on: male ZDF rat
# Test: Four weeks treatment of overtly diabetic male ZDF rats: HbA1c and 24-hour glucose profile
# Format: in vivo
# Details: mean±SEM, n=10, propionic acid compound 1 mg/kg oral gavage once daily, GLP-1 derivative 50 µg/kg subcutaneously twice daily
# Protocol: Ninety male ZDF rats aged 15-16 weeks were used in the study. Before treatment start, measurements of glucose and HbA1c were performed. All animals were overtly diabetic at the beginning of the study. Animals were allocated into the following 4 treatment groups:
# (-)-2-Ethoxy-3-(4-(2-phenoxazin-10-yl-ethoxy)-phenyl)-propionic acid and Vehicle-1 were administered by oral gavage once daily at approx. 07:30. Arg^34, Lys^26(N^ε-(γ-Glu(N^α-hexadecanoyl)))-GLP-1 (7-37) and Vehicle-2 were administered subcutaneously twice daily at approx. 07:30 and 14:30.
# After four weeks treatment, HbA1c was measured and 24-hour glucose profiles were assessed.
# Delta HbA1c refers to the numerical difference between the measurement after treatment and the measurement before treatment. Glucose24hAUC refers to the total area under the glucose concentration curve during the 24-hour period. A two-way analysis of variance was performed for each parameter and the significance of the interaction term evaluated.
smiles,measurement,setting,value
"CCOC(Cc1ccc(OCCN2c3ccccc3Oc3ccccc32)cc1)C(=O)O (single isomer, unassigned; (-)) [(-)-2-ethoxy-3-(4-(2-phenoxazin-10-yl-ethoxy)-phenyl)-propionic acid]",Delta HbA1c,after four weeks treatment minus before treatment,-0.81±0.36 % points
same,Glucose24hAUC,total area under the glucose concentration curve during 24-hour period after four weeks treatment,456 ± 38 mM·h
